Measured values as given in patent EP1203770A1 (priority 1992, dated 1994).
Entries after “also recorded” stand apart in the source; their conditions may differ.

Assays:
HIV-1 protease = biological target: T1, HIV-1 protease (Human immunodeficiency virus type 1 group M subtype B, UniProt P04585); assay: In vitro HIV protease inhibitory assay (HIV Protease FITC Assay); format: biochemical; conditions: for inhibition at 0.123 µM: HIV-1 Dose 0.123 uM; for inhibition at 0.123 µM / inhibition at 0.37 µM / inhibition at 1.1 µM / inhibition at 3.3 µM / inhibition at 10 µM / inhibition at 30 µM / inhibition at 1 µM / inhibition at 100 µM: read-out: HIV-1 Protease % Inhib; for inhibition at 0.37 µM: HIV-1 Dose 0.370 uM; for inhibition at 1.1 µM: HIV-1 Dose 1.100 uM; for inhibition at 3.3 µM: HIV-1 Dose 3.300 uM; for inhibition at 10 µM: HIV-1 Dose 10.000 uM; for inhibition at 30 µM: HIV-1 Dose 30.000 uM; for Ki: read-out: HIV-1 FITC Ki; for inhibition at 1 µM: HIV-1 Dose 1.000 uM; for inhibition at 100 µM: HIV-1 Dose 100.000 uM
T1 construct: The protease (or proteinase), consisting of only 99 amino acids, is among the smallest enzymes known
How it was run: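 Percent inhibition was read as fluorescence after avidin-bead capture and filtration separated FITC cleavage product from biotinylated substrate. Enzyme and substrate reacted 1 h, RT, dark, at pH 5.5 (0.1 M sodium acetate, 1.0 M NaCl, 0.05% NP-40).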

[1] = test system: testosterone 5α-reductase; assay: In vitro testosterone 5α-reductase inhibitor assay; format: biochemical; conditions: at a dose of at least 0.1 mM; dog and rat prostates
Description: The following five (5) compounds of the present invention were tested in an in vitro testosterone 5α-reductase inhibitor assay: 3-(α-Ethylbenzyl)-6-(α-ethylphenethyl)-4-hydroxy-2H-pyran-2-one; 6-(1-Benzyl-propyl)-3-(cyclopropyl-phenyl-methyl)-4-hydroxy-pyran-2-one; 3-(α-Ethylbenzyl)-6-(α-ethylbenzyl)-4-hydroxy-2H-pyran-2-one; 3-(α-Ethylbenzyl)-6-phenethyl-4-hydroxy-2H-pyran-2-one; 4-Hydroxy-3-(1-phenylpropyl)-6-[1-[(tetrahydro-2H-pyran-3-yl)methyl]propyl]-2H-pyran-2-one. This assay is very similar to those described in the following references, except for the use of dog and rat prostates in place of human prostates: Proc. Natl. Acad. Sci. USA, Vol. 90: 5277-5281 (1993); J. Steroid. Biochem. Molec. Biol., Vol. 44, No. 2, pp. 121-131 (1993). All five (5) compounds had activity in this assay at a dose of at least 0.1 mM.

HIV-1IIIB = assay: Inhibition of retroviral replication in infected human T-cell lines (MT4, H9); format: cell-based; conditions: e.g., MT4 and H9, infected with HIV-1IIIB
Description: Several compounds of the present invention, such as 3-(alpha-ethylbenzyl)-6-(alpha-ethylphenethyl)-4-hydroxy-2H-pyran-2-one, were tested in known human cell lines, such as human T-cell lines, e.g., MT4 and H9, which were infected with HIV-1IIIB, and certain of these compounds were further tested in peripheral blood mononuclear cells (PBMC), which were infected with HIV-1JRCSF (a clinical isolate).

[2] = Four week oral drug safety and toxicity study in beagle dogs (prostate size and weight); format: in vivo
From the text: Daily oral doses were divided into two (2) equal doses with at least seven (7) hours between the morning and afternoon dose. Parameters evaluated included twice daily clinical observations; daily evaluation of food and water consumption; twice weekly body weights; pretest and dosage day (dd) 15 or 16 and 24 or 25 electrocardiograms; pretest and dd 23 or 24 ophthalmology examinations; pretest and dd 1, 8, 14, 21 and 28 plasma drug levels; pretest and dd 8, 14, and 28 hemograms and serum chemistries; pretest and dd 14 and 28 urinalyses; terminal body weights, gross necropsy observations and absolute and relative organ weights; and histopathologic evaluation of organs and tissues.

[3] = male dogs, group 2, 50 mg/kg/day oral, 28 days, n=3
[4] = male dogs, group 3, 100 mg/kg/day oral, 28 days, n=3
[5] = male dogs, group 4, 200 mg/kg/day oral, 28 days, n=3
[6] = male dogs, group 5, 400 mg/kg/day oral, 28 days, n=3
[7] = repeat study, 400 mg/kg/day, 4 dogs
[8] = repeat study, male dogs, group 7, 400 mg/kg/day, n=4

With `CCC(CC1CCCOC1)c1cc(O)c(C(CC)c2ccccc2)c(=O)o1` (stereo not drawn) [Example 135, 4-Hydroxy-3-(1-phenylpropyl)-6-[1-[(tetrahydro-2H-pyran-3-yl)methyl]propyl]-2H-pyran-2-one] as the compound, how does the inhibition at 0.123 µM (HIV-1 protease) read?
The inhibition at 0.123 µM was 12.4%.

What about the inhibition at 0.37 µM (HIV-1 protease) of the same compound?
Its inhibition at 0.37 µM is 26.5%.

And the inhibition at 1.1 µM (HIV-1 protease)?
Its inhibition at 1.1 µM is 65.6%.

What about the inhibition at 3.3 µM (HIV-1 protease) of the same compound?
Its inhibition at 3.3 µM is 87.9%.

What about the inhibition at 10 µM (HIV-1 protease) of the same compound?
The inhibition at 10 µM was 103%.

And the inhibition at 30 µM (HIV-1 protease)?
Its inhibition at 30 µM is 99.9%.

And the Ki (HIV-1 protease)?
The Ki was 45 nM.

And the “activity in testosterone 5α-reductase inhibitor assay” value [1]?
The value was “had activity”.

Which inhibition at 1 µM (HIV-1 protease) does the source give for `CCC(Cc1ccccc1)c1cc(O)c(C(c2ccccc2)C2CC2)c(=O)o1` (stereo not drawn) [Example 86, 6-(1-Benzyl-propyl)-3-(cyclopropyl-phenyl-methyl)-4-hydroxy-pyran-2-one] here?
The inhibition at 1 µM was 58.1%.

What about the inhibition at 10 µM (HIV-1 protease) of the same compound?
Its inhibition at 10 µM is 83%.

What about the inhibition at 100 µM (HIV-1 protease) of the same compound?
Its inhibition at 100 µM is 55.3%.

And the “activity in testosterone 5α-reductase inhibitor assay” value [1]?
The value was “had activity”.

For `CCC(c1ccccc1)c1c(O)cc(CCc2ccccc2)oc1=O` (stereo not drawn) [Example 3, 3-(α-ethylbenzyl)-6-phenethyl-4-hydroxy-2H-Pyran-2-one], which inhibition at 1 µM (HIV-1 protease) is on record?
The inhibition at 1 µM was 19%.

What about the inhibition at 10 µM (HIV-1 protease) of the same compound?
The inhibition at 10 µM was 67.4%.

And the “activity in testosterone 5α-reductase inhibitor assay” value [1]?
The value was “had activity”.

For `CCC(Cc1ccccc1)c1cc(O)c(C(CC)c2ccccc2)c(=O)o1` (stereo not drawn) [Example 13, 3-(α-ethylbenzyl)-6-(αethylphenethyl)-4-hydroxy-2H-Pyran-2-one], which IC50 (HIV-1 protease) is on record?
Its IC50 is 1300 nM.

What about the inhibition at 1 µM (HIV-1 protease) of the same compound?
Its inhibition at 1 µM is 79.5%.

What about the inhibition at 10 µM (HIV-1 protease) of the same compound?
Its inhibition at 10 µM is 92%.

What about the inhibition at 100 µM (HIV-1 protease) of the same compound?
Its inhibition at 100 µM is 72%.

What about the retroviral replication (HIV-1IIIB) of the same compound?
The retroviral replication was “found to inhibit retroviral replication”.

What about the “activity in testosterone 5α-reductase inhibitor assay” value [1] of the same compound?
Its value is “had activity”.

And the “light microscopic examination of testes, adrenals and pituitaries” value ([2]; high dose versus control)?
Its value is “did not show drug-related changes”.

And the “Absolute Weight (mean prostate weight)” value [2, 3]?
The value was 8.87 GMs.

What about the “Relative Weight* (mean prostate weight)” value [2, 3] of the same compound?
The value was 0.088 % body weight.

And the “Absolute Weight (mean prostate weight)” value [2, 4]?
Its value is 7.55 GMs.

And the “Relative Weight* (mean prostate weight)” value [2, 4]?
Its value is 0.074 % body weight.

What about the “Absolute Weight (mean prostate weight)” value [2, 5] of the same compound?
The value was 4.58 GMs.

And the “Relative Weight* (mean prostate weight)” value [2, 5]?
Its value is 0.046 % body weight.

And the “Absolute Weight (mean prostate weight)” value [2, 6]?
The value was 4.43 GMs.

What about the “Relative Weight* (mean prostate weight)” value [2, 6] of the same compound?
Its value is 0.044 % body weight.

And the “prostate size and weight” value ([2]; male dogs, oral 50 to 400 mg/kg/day, 28 days)?
The value was “dose-related decrease in prostate size and weight; also recorded: dose related decrease in prostate size and weight”.

And the “dogs with marked decreases of prostate weight” value [2, 7]?
The value was 1/4.

And the “high dose dogs with lower absolute and relative prostate weights than controls” value [2, 7]?
The value was 2/4.

What about the “Absolute Weight (mean prostate weight)” value [2, 8] of the same compound?
Its value is 5.65 GMs.

And the “Relative Weight* (mean prostate weight)” value [2, 8]?
The value was 0.055 % body weight.

Which inhibition at 0.123 µM (HIV-1 protease) does the source give for `O=C(CCn1ccc2ccccc21)Nc1cccc(C(c2c(O)cc(C(CC3CC3)CC3CC3)oc2=O)C2CC2)c1` (stereo not drawn) [Example 39, N-(3-(Cyclopropyl-[6-(2-cyclopropyl-1-cyclopropylmethyl-ethyl)-4-hydroxy-2-oxo-2H-pyran-3-yl]-methyl)-phenyl)-3-indol-1-yl-propionamide] here?
The inhibition at 0.123 µM was under 10%.

What about the inhibition at 0.37 µM (HIV-1 protease) of the same compound?
The inhibition at 0.37 µM was 24.8%.

What about the inhibition at 1.1 µM (HIV-1 protease) of the same compound?
Its inhibition at 1.1 µM is 60.6%.

What about the inhibition at 3.3 µM (HIV-1 protease) of the same compound?
The inhibition at 3.3 µM was 86.3%.

And the inhibition at 10 µM (HIV-1 protease)?
Its inhibition at 10 µM is 91.8%.

And the inhibition at 30 µM (HIV-1 protease)?
Its inhibition at 30 µM is 94.5%.

What about the Ki (HIV-1 protease) of the same compound?
Its Ki is 96 nM.
